# Like-named read-outs stand apart in the source and are kept apart here.
# Legend:
# [1] = test system: Mes-Sa-B1 cells (Pgp overexpressing); experiment: Fluorescence-based cytotoxicity assay, Mes-Sa-B1 mOr
# [2] = test system: Mes-Sa/Dx5 cells; experiment: Fluorescence-based cytotoxicity assay, Mes-Sa/Dx5 eGFP; conditions: for RR (Dx5): resistance ratio = IC50 Mes-Sa/Dx5 / IC50 parental Mes-Sa
# [3] = test system: A431-G2 cells (ABCG2 expressing); experiment: Fluorescence-based cytotoxicity assay, ABCG2-expressing A431-G2 mOr
# [4] = test system: A431-2B1 cells (OATP2B1 expressing); experiment: Fluorescence-based cytotoxicity assay, OATP2B1-expressing A431-2B1 mCh
# [5] = test system: A431-B1 cells (ABCB1/P-glycoprotein expressing); experiment: Fluorescence-based cytotoxicity assay, ABCB1-expressing A431-B1 mCh
# [6] = test system: A431 cells; experiment: Fluorescence-based cytotoxicity assay, parental A431 eGFP; conditions: Homo sapiens
# [7] = test system: OATP2B1; experiment: Fluorescence-based cytotoxicity assay, OATP2B1-expressing A431-2B1 mCh; conditions: human
# [8] = selectivity ratio = IC50 parental Mes-Sa / IC50 Mes-Sa-B1, triple co-culture screen
# [9] = selectivity ratio = IC50 parental Mes-Sa / IC50 Mes-Sa/Dx5, triple co-culture screen
# [10] = triple co-culture, result in words
# [11] = primary screen, co-culture, Fig. 4 inset
# [12] = resistance ratio = IC50 Mes-Sa-B1 / IC50 parental Mes-Sa, triple co-culture screen
# [13] = resistance ratio = IC50 A431B1 / IC50 parental A431, triple co-culture screen
smiles,measurement,setting,value
"Nc1nc2nc[nH]c2c(=S)[nH]1 [NSC-752, Thioguanine]",SR (Mes-Sa-B1),[1]; [8],0.41
same,SR (Mes-Sa/DX5),[2]; [9],6.93
"S=c1[nH]cnc2nc[nH]c12 [NSC-755, Mercaptopurine]",SR (Mes-Sa-B1),[1]; [8],0.39
same,SR (Mes-Sa/DX5),[2]; [9],3.87
same,Effect of ABCG2 expression on toxicity (A431-G2 vs parental A431),[3]; [10],conferred resistance
"C1CN1c1nc(N2CC2)nc(N2CC2)n1 [NSC-9706, Triethylenemelamine]",SR (Mes-Sa/DX5),[2],26.62
"O=c1[nH]c(=O)n([C@H]2C[C@H](O)[C@@H](CO)O2)cc1F [NSC-27640, Floxuridin]","SR (A431-2B1 vs parental A431), screening of DTP Oncology Set IV",[4]; [11],12.31
"CC[C@]1(O)C[C@@H]2CN(CCc3c([nH]c4ccccc34)[C@@](C(=O)OC)(c3cc4c(cc3OC)N(C)[C@H]3[C@@](O)(C(=O)OC)[C@H](OC(C)=O)[C@]5(CC)C=CCN6CC[C@]43[C@@H]65)C2)C1 [NSC-49842, Vinblastine]",RR (Mes-Sa-B1),[1]; [12],15.00
same,RR (Dx5),[2]; triple co-culture screen,11.00
same,RR (A431B1),[5]; [13],244.4
"Nc1ccn([C@@H]2O[C@H](CO)[C@@H](O)[C@@H]2O)c(=O)n1 [NSC-63878, Cytarabine]","SR (A431-2B1 vs parental A431), screening of DTP Oncology Set IV",[4],> 18.12
"CC[C@]1(O)C[C@H]2CN(CCc3c([nH]c4ccccc34)[C@@](C(=O)OC)(c3cc4c(cc3OC)N(C=O)[C@H]3[C@@](O)(C(=O)OC)[C@H](OC(C)=O)[C@]5(CC)C=CCN6CC[C@]43[C@@H]65)C2)C1 [NSC-67574, Vincristine]",RR (Mes-Sa-B1),[1]; [12],38.00
same,RR (Dx5),[2]; triple co-culture screen,36.00
same,RR (A431B1),[5]; [13],56.8
"CC(=O)O[C@H]1C(=O)[C@@]2(C)[C@H]([C@H](OC(=O)c3ccccc3)[C@]3(O)C[C@H](OC(=O)[C@H](O)[C@@H](NC(=O)c4ccccc4)c4ccccc4)C(C)=C1C3(C)C)[C@]1(OC(C)=O)CO[C@@H]1C[C@@H]2O [NSC-125973, Taxol]",RR (Mes-Sa-B1),[1]; [12],593.3
same,RR (Dx5),[2]; triple co-culture screen,497.67
same,RR (A431B1),[5]; [13],50.91
same,Effect of OATP2B1 expression on toxicity (A431-2B1 vs A431 eGFP),"[4]; co-culture screen, result in words",not transported by OATP2B1
"Nc1nc(Cl)nc2c1ncn2[C@@H]1O[C@H](CO)[C@@H](O)[C@@H]1F [NSC-606869, Clofarabine]",SR (Mes-Sa-B1),[1],0.91
same,SR (Mes-Sa/DX5),[2]; [9],3.44
same,Effect of ABCG2 expression on toxicity (A431-G2 vs parental A431),[3],conferred resistance
"CCC1=C[C@@H]2CN(C1)Cc1c([nH]c3ccccc13)[C@@](C(=O)OC)(c1cc3c(cc1OC)N(C)[C@H]1[C@@](O)(C(=O)OC)[C@H](OC(C)=O)[C@]4(CC)C=CCN5CC[C@]31[C@@H]54)C2 [NSC-608210, Vinorelbine]",RR (Mes-Sa-B1),[1]; [12],725.00
same,RR (Dx5),[2]; triple co-culture screen,861.00
same,RR (A431B1),[5]; [13],232.00
"Nc1ccn([C@@H]2O[C@H](CO)[C@@H](O)C2(F)F)c(=O)n1 [NSC-613327, Gemcitabine]","SR (A431-2B1 vs parental A431), screening of DTP Oncology Set IV",[4]; [11],16.5
"CCc1c2c(nc3ccc(OC(=O)N4CCC(N5CCCCC5)CC4)cc13)-c1cc3c(c(=O)n1C2)COC(=O)[C@]3(O)CC [NSC-616348, Irinotecan]",IC50,"[6]; A-431, read-out: IC50 (µM) A431 eGFP, co-culture",13.8 µM
same,IC50,"[6]; A-431, read-out: IC50 (µM) A431 eGFP, monoculture",11.1 µM
same,Effect of ABCG2 expression on toxicity (A431-G2 vs parental A431),[3],conferred resistance
"Nc1nc2[nH]cc(CCc3ccc(C(=O)N[C@@H](CCC(=O)O)C(=O)O)cc3)c2c(=O)[nH]1 [NSC-698037, Pemetrexed]",SR (Mes-Sa-B1),[1]; [8],1.14
same,SR (Mes-Sa/DX5),[2]; [9],3.29
"Cc1nc(Nc2ncc(C(=O)Nc3c(C)cccc3Cl)s2)cc(N2CCN(CCO)CC2)n1 [NSC-732517, Dasatinib]",RR (Mes-Sa-B1),[1]; [12],3.147
same,RR (Dx5),[2]; triple co-culture screen,> 3.60
same,RR (A431B1),[5],11.5
same,Effect of ABCG2 expression on toxicity (A431-G2 vs parental A431),[3],conferred resistance
"Cc1cn(-c2cc(NC(=O)c3ccc(C)c(Nc4nccc(-c5cccnc5)n4)c3)cc(C(F)(F)F)c2)cn1 [NSC-747599, Nilotinib]",SR (Mes-Sa-B1),[1]; [8],1.23
same,SR (Mes-Sa/DX5),[2]; [9],4.68
"C/C(=C\c1csc(C)n1)[C@@H]1C[C@@H]2O[C@]2(C)CCC[C@H](C)[C@H](O)[C@@H](C)C(=O)C(C)(C)[C@@H](O)CC(=O)N1 [NSC-747973, Ixabepilone]",RR (Mes-Sa-B1),[1],>208.3
same,RR (Dx5),[2]; triple co-culture screen,9.66
same,RR (A431B1),[5],23.32
"C/C=C1\NC(=O)[C@H]2CSSCC/C=C/[C@H](CC(=O)N[C@H](C(C)C)C(=O)N2)OC(=O)[C@H](C(C)C)NC1=O [NSC-754143, Romidepsin]",RR (Mes-Sa-B1),[1],331.70
same,RR (Dx5),[2]; triple co-culture screen,> 234.15
same,RR (A431B1),[5],> 97
"CS(=O)(=O)c1ccc(C(=O)Nc2ccc(Cl)c(-c3ccccn3)c2)c(Cl)c1 [NSC-755986, Vismodegib]",SR (Mes-Sa/DX5),[2]; [9],> 3.31
"CC(C)C[C@H](NC(=O)[C@H](CCc1ccccc1)NC(=O)CN1CCOCC1)C(=O)N[C@@H](Cc1ccccc1)C(=O)N[C@@H](CC(C)C)C(=O)[C@@]1(C)CO1 [NSC-758252, Carfilzomib]",RR (Mes-Sa-B1),[1]; [12],55.50
same,RR (Dx5),[2]; triple co-culture screen,88.00
same,RR (A431B1),[5]; [13],47.4
"CO[C@H]1C(=O)[C@]2(C)[C@@H](OC)C[C@H]3OC[C@@]3(OC(C)=O)[C@H]2[C@H](OC(=O)c2ccccc2)[C@]2(O)C[C@H](OC(=O)[C@H](O)[C@@H](NC(=O)OC(C)(C)C)c3ccccc3)C(C)=C1C2(C)C [NSC-761432, Cabazitaxel]",RR (Mes-Sa-B1),[1]; [12],63.00
same,RR (Dx5),[2]; triple co-culture screen,> 107.00
same,RR (A431B1),[5]; [13],6.00
CC(C)C[C@H](NC(=O)[C@H](Cc1ccccc1)NC(=O)c1cnccn1)B(O)O [bortezomib],RR (Mes-Sa-B1),[1]; [12],4.3
same,RR (Dx5),[2]; triple co-culture screen,17
same,RR (A431B1),[5]; [13],2.7
C[C@@H](Oc1cc(-c2cnn(C3CCNCC3)c2)cnc1N)c1c(Cl)ccc(F)c1Cl [crizotinib],RR (Mes-Sa-B1),[1]; [12],9.9
same,RR (Dx5),[2]; triple co-culture screen,21.3
same,RR (A431B1),[5]; [13],2.6
COc1cc2ncnc(Nc3ccc(F)c(Cl)c3)c2cc1OCCCN1CCOCC1 [gefitinib],Effect of ABCG2 expression on toxicity (A431-G2 vs parental A431),[3]; [10],conferred resistance
CS(=O)(=O)CCNCc1ccc(-c2ccc3ncnc(Nc4ccc(OCc5cccc(F)c5)c(Cl)c4)c3c2)o1 [lapatinib],Effect of ABCG2 expression on toxicity (A431-G2 vs parental A431),[3]; [10],conferred resistance
CC[C@@]1(O)C(=O)OCc2c1cc1n(c2=O)Cc2cc3c(CN(C)C)c(O)ccc3nc2-1 [topotecan],Effect of ABCG2 expression on toxicity (A431-G2 vs parental A431),[3]; [10],conferred resistance
